Source: US6825230B2, “Spiro and dispiro 1,2,4-trixolane antimalarials” (Medicines for Malaria Venture MMV, priority 2002, dated 2004)
Values after ≈ are worked out from the molar mass of the structure shown. Where two headings read alike, the source gives them in different places.

What was measured:
[1] = test system: chloroquine-sensitive NF54 strain of P. falciparum; test: In vitro antimalarial semiautomated microdilution assay ([3H]-hypoxanthine incorporation), NF54 strain; type: cell-based, Plasmodium falciparum; conditions: Plasmodium falciparum
Summary of the method: (§1)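 Semiautomated microdilution against intraerythrocytic P. falciparum from asynchronous stock cultures, with growth tracked by [3H]-hypoxanthine incorporation. IC50 values were estimated by Logit regression analysis.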

[2] = test system: chloroquine-resistant K1 strain of P. falciparum; test: In vitro antimalarial semiautomated microdilution assay ([3H]-hypoxanthine incorporation), K1 strain; type: cell-based, Plasmodium falciparum; conditions: Plasmodium falciparum
Summary of the method: as §1

[3] = test system: ANKA strain of P. berghei; test: Single dose STI in vivo screen in infected mice; set-up: species or system Plasmodium berghei; conditions: for Survival (days) 10 mg/kg po: single 10 mg/kg po in 3% ethanol and 7% Tween 80; for Survival (days) 10 mg/kg po / Survival (days) 10 mg/kg SSV po / Survival (days) 10 mg/kg sc: untreated 6-7 days; for Activity (%) 10 mg/kg po: single 10 mg/kg po in 3% ethanol and 7% Tween 80 on day 1 post-infection; for Activity (%) 10 mg/kg po / Activity (%) 10 mg/kg SSV po / Activity (%) 10 mg/kg sc / Activity (%) 3 mg/kg SSV po: percent reduction in parasitemia on day 3; for Survival (days) 10 mg/kg SSV po: single 10 mg/kg po in SSV; for Activity (%) 10 mg/kg SSV po: single 10 mg/kg po in standard suspending vehicle (SSV) on day 1 post-infection; for Survival (days) 10 mg/kg sc: single 10 mg/kg sc in 3% ethanol and 7% Tween 80; for Activity (%) 10 mg/kg sc: single 10 mg/kg sc in 3% ethanol and 7% Tween 80 on day 1 post-infection; for Survival (days) 3 mg/kg SSV po / Activity (%) 3 mg/kg SSV po: single 3 mg/kg po in SSV
[4] = NF54, 72 h, read-out: IC50 (ng/ml) NF54, chloroquine-sensitive NF54 strain, 72 h incubation
[5] = K1, 72 h, read-out: IC50 (ng/ml) K1, chloroquine-resistant K1 strain, 72 h incubation
[6] = chloroquine-sensitive NF54 strain, 72 h incubation, read-out: IC50 (ng/ml) NF54
[7] = chloroquine-resistant K1 strain, 72 h incubation, read-out: IC50 (ng/ml) K1

Structure (SMILES)	IC50 [1, 4] [ng/mL]	IC50 [2, 5] [ng/mL]	Survival (days) 10 mg/kg po [3]	Activity (%) 10 mg/kg po [3]	Survival (days) 10 mg/kg SSV po [3]	Activity (%) 10 mg/kg SSV po [3]	Survival (days) 10 mg/kg sc [3]	Activity (%) 10 mg/kg sc [3]	IC50 [1, 6] [ng/mL]	IC50 [2, 7] [ng/mL]	Survival (days) 3 mg/kg SSV po [3] [days]	Activity (%) 3 mg/kg SSV po [3] [%]
c1ccc2c(c1)-c1ccccc1C21OOC2(O1)C1CC3CC(C1)CC2C3 (stereo not shown) [OZ94, Adamantane-2-spiro-3′-1′,2′,4′-trioxolane-5′-spiro-9″-fluorene]	28 (≈ 80.8 nM)	57 (≈ 165 nM)	6.0 days	21%	5.7 days	0%	5.3 days	11%				
O=C(C[C@H]1CC[C@]2(CC1)OOC1(O2)C2CC3CC(C2)CC1C3)N1CCN(c2ccccc2)CC1 (stereo partly shown) [OZ244]			5.7 days	6%	5.3 days	0%	6.3 days	18%	4.2 (≈ 9 nM)	4 (≈ 8.57 nM)		
O=C(C[C@H]1CC[C@]2(CC1)OO[C@]1(O2)C2CC3CC(C2)CC1C3)NCc1ccccn1 [OZ295]					7.0 days	47%			0.75 (≈ 1.82 nM)	0.44 (≈ 1.07 nM)	6.4	35
O=C(C[C@H]1CC[C@]2(CC1)OO[C@]1(O2)C2CC3CC(C2)CC1C3)NCCN1CCOCC1 [OZ313]	0.76 (≈ 1.75 nM)	0.55 (≈ 1.27 nM)			10.4 days						7.4	58
O=C(NCCO)[C@H]1CC[C@]2(CC1)OOC1(O2)C2CC3CC(C2)CC1C3 (stereo partly shown) [OZ155]	> 10	12 (≈ 34.1 nM)	6.3 days	53%	7.0 days	53%	8.3 days	73%				
NCCOc1ccc([C@H]2CC[C@]3(CC2)OO[C@]2(O3)C3CC4CC(C3)CC2C4)cc1 [OZ323]	1.1 (≈ 2.75 nM)	0.85 (≈ 2.13 nM)			15.6 days	99.98%					9.2	99.92
c1ccc2c(c1)OCCC21OOC2(O1)C1CC3CC(C1)CC2C3 (stereo not shown) [OZ134, Adamantane-2-spiro-3′-1′,2′,4′-trioxolane-5′-spiro-4″-2″, 3″-dihydro-4″H-1″-benzopyran]	1.1 (≈ 3.5 nM)	0.88 (≈ 2.8 nM)	6.3 days	72%	6.0 days	27%	15.3 days	99.95%				
COC(=O)c1cncn1C[C@H]1CC[C@]2(CC1)OOC1(O2)C2CC3CC(C2)CC1C3 (stereo partly shown) [OZ223]			7.3 days	89%	6.3 days	79%	12.0 days	99.57%	> 10	4 (≈ 9.94 nM)		
O=C(OC[C@H]1CC[C@]2(CC1)OOC1(O2)C2CC3CC(C2)CC1C3)n1ccnc1 (stereo partly drawn) [OZ141, cis-Adamantane-2-spiro-3′-1′,2′,4′-trioxaspiro[4.5]decane-8′-methyl imidazole-1-carboxylate]	1.9 (≈ 4.89 nM)	1.7 (≈ 4.38 nM)	8.0 days	98%	8.0 days	97%	8.7 days	99.89%				
BrC[C@H]1CC[C@]2(CC1)OOC1(O2)C2CC3CC(C2)CC1C3 (stereo partly shown) [OZ123]			8.0 days	99.66%	7.0 days	94%	16 days	99.96%	1.9 (≈ 5.32 nM)	1.6 (≈ 4.48 nM)		
O=C(NC[C@H]1CC[C@]2(CC1)OOC1(O2)C2CC3CC(C2)CC1C3)c1cccc[n+]1[O-] (stereo partly shown) [OZ270]			13.7 days	99.17%	12.3 days	99.47%	11.3 days	99.81%	1.3 (≈ 3.14 nM)	0.85 (≈ 2.05 nM)		
CCCCCCCCS(=O)(=O)N1CCC2(CC1)OOC1(O2)C2CC3CC(C2)CC1C3 (stereo not shown) [OZ115, Adamantane-2-spiro-3′-8′-(1′-octanesulfonyl)-1′,2′,4′-trioxa-8′-azaspiro[4.5]decane]	6.9 (≈ 15.6 nM)	11 (≈ 24.9 nM)	6.3 days	33%	5.7 days	0%	7.3 days	97%				
S=C(Nc1ccccc1)N1CCC2(CC1)OOC1(O2)C2CC3CC(C2)CC1C3 (stereo not shown) [OZ144, Adamantane-2-spiro-3′-8′-(phenylaminothiocarbonyl)-1′,2′,4′-trioxa-8′-azaspiro[4.5]decane]	2.1 (≈ 5.24 nM)	1.4 (≈ 3.5 nM)	7.3 days	99.45%	7.3 days	92%	16.7 days	99.94%				
O=C(O)c1cccc([C@H]2CC[C@]3(CC2)OOC2(O3)C3CC4CC(C3)CC2C4)c1 (stereo partly shown) [OZ198]	> 10	> 10	5.7 days	4%	6.0 days	6%	5.7 days	6%				
O=C(OCCn1ccnc1)C1CCC2(CC1)OOC1(O2)C2CC3CC(C2)CC1C3 (stereo not shown) [OZ182]	5.5 (≈ 13.7 nM)	4.5 (≈ 11.2 nM)	8.0 days	91%	7.3 days	96%	7.7 days	95%				
Fc1ccc(NC2CCC3(CC2)OOC2(O3)C3CC4CC(C3)CC2C4)cc1 (stereo not shown) [OZ201]	3.1 (≈ 8.3 nM)	2 (≈ 5.36 nM)	13 days	100/100/100%	10.3 days	100/100/100%	25 days	100/100/100%				
O=CN1CCN(C(=O)C[C@H]2CC[C@]3(CC2)OO[C@]2(O3)C3CC4CC(C3)CC2C4)CC1 [OZ294]					8.6 days	99.79%			0.63 (≈ 1.51 nM)	0.39 (≈ 0.932 nM)	7.4	70
N=C(N)NC[C@H]1CC[C@]2(CC1)OOC1(O2)C2CC3CC(C2)CC1C3 (stereo partly shown) [OZ237]	7.1 (≈ 21.2 nM)	5.7 (≈ 17 nM)	6.0 days	5%	6.0 days	9%	6.7 days	52%				
O=C(NC[C@H]1CC[C@]2(CC1)OOC1(O2)C2CC3CC(C2)CC1C3)c1c[nH]cn1 (stereo partly shown) [OZ263]			13.0 days	99.53%	13.3 days	99.45%	11.0 days	99.92%	1.1 (≈ 2.84 nM)	0.84 (≈ 2.17 nM)		
CN1CCN(C(=O)NC[C@H]2CC[C@]3(CC2)OOC2(O3)C3CC4CC(C3)CC2C4)CC1 (stereo partly shown) [OZ267]			8.3 days	99.92%	8.7 days	99.89%	9.3 days	99.97%	0.34 (≈ 0.81 nM)	0.2 (≈ 0.477 nM)		
COCC(=O)N[C@H]1CC[C@]2(CC1)OOC1(O2)C2CC3CC(C2)CC1C3 (stereo partly shown) [OZ186]	> 10	> 10	8.0 days	87%	9.0 days	96%	8.0 days	67%				
O=C(O)c1ccc(C[C@H]2CC[C@]3(CC2)OOC2(O3)C3CC4CC(C3)CC2C4)cc1 (stereo partly shown) [OZ214]			6.3 days	44%	7.3 days	54%	7.7 days	65%	> 10	> 10		
CONC(=O)C[C@H]1CC[C@]2(CC1)OOC1(O2)C2CC3CC(C2)CC1C3 (stereo partly shown) [OZ213]			8.0/8.0/8.0 days	83%	8.0/8.0/8.0 days	74%	8.0/8.0/8.0 days	85%	2.8 (≈ 7.97 nM)	2.3 (≈ 6.54 nM)		
